Consider two compounds from patent US6352958B1, “Cycloimido-substituted benzofused heterocyclic herbicides” (FMC Corporation, priority 1997, dated 2002).

What all share (format): in vivo
In assay [1] the test system is Johnsongrass (Sorghum halepense). Put plainly: Postemergence herbicidal activity, johnsongrass. The settings on record: rate of application 0.3 Kg/Ha, rated after 12-17 days. The protocol: (§1) The benzofused heterocyclic compounds of this invention were tested for pre- and postemergence herbicidal activity using a variety of crops and weeds. The test plants included soybean (Glycine max var. Winchester), field corn (Zea mays var. Pioneer 3732), wheat (Triticum aestivum var. Lew), morningglory (Ipomea lacunosa or Ipomea hederacea), velvetleaf (Abutilon theophrasti), green foxtail (Setaria viridis), Johnsongrass (Sorghum halepense), blackgrass (Aloepecurus myosuroides), common chickweed (Stellaria media), and common cocklebur (Xanthium strumarium L.).
(§2) For preemergence testing, two disposable fiber flats (8 cm×15 cm×25 cm) for each rate of application of each candidate herbicide were filled to an approximate depth of 6.5 cm with steam-sterilized sandy loam soil. The soil was leveled and impressed with a template to provide five evenly spaced furrows 13 cm long and 0.5 cm deep in each flat. Seeds of soybean, wheat, corn, green foxtail, and johnsongrass were planted in the furrows of the first flat, and seeds of velvetleaf, morningglory, common chickweed, cocklebur, and blackgrass were planted in the furrows of the second flat. The five-row template was employed to firmly press the seeds into place. A topping soil of equal portions of sand and sandy loam soil was placed uniformly on top of each flat to a depth of approximately 0.5 cm. Flats for postemergence testing were prepared in the same manner except that they were planted 9-14 days prior to the preemergence flats and were placed in a greenhouse and watered, thus allowing the seeds to germinate and the foliage to develop.
(§3) In both pre- and postemergence tests, a stock solution of the candidate herbicide was prepared by dissolving 0.27 g of the compound in 20 mL of water/acetone (50/50) containing 0.5% v/v sorbitan monolaurate. For an application rate of 3000 g/ha of herbicide a 10 mL portion of the stock solution was diluted with water/acetone (50/50) to 45 mL.
(§4) The preemergence flats were initially subjected to a light water spray. The four flats were placed two by two along a conveyor belt (i.e., the two preemergence followed by the two postemergence flats). The conveyor belt fed under a spray nozzle mounted about ten inches above the post-emergent foliage. The preemergent flats were elevated on the belt so that the soil surface was at the same level below the spray nozzle as the foliage canopy of the postemergent plants. The spray of herbicidal solution was commenced and once stabilized, the flats were passed under the spray at a speed to receive a coverage equivalent of 100 L/ha. At this coverage the application rates are those shown in the above table for the individual herbicidal solutions. The preemergence flats were watered immediately thereafter, placed in the greenhouse and watered regularly at the soil surface. The postemergence flats were immediately placed in the green-house and not watered until 24 hours after treatment with the test solution. Thereafter they were regularly watered at ground level. After 12-17 days the plants were examined and the phytotoxicity data were recorded.
(§5) Phytotoxicity data were taken as percent control. Percent control was determined by a method similar to the 0 to 100 rating system disclosed in “Research Methods in Weed Science,” 2nd ed., B. Truelove, Ed.; Southern Weed Science Society; Auburn University, Auburn, Ala., 1977.

In assay [2] the test system is wheat (Triticum aestivum var. Lew). Put plainly: Postemergence herbicidal activity, wheat. Conditions: rate of application 0.3 Kg/Ha, rated after 12-17 days. The protocol: as §1, §2, §3, §4, §5
For assay [3], the system named is field corn (Zea mays var. Pioneer 3732). Put plainly: Postemergence herbicidal activity, corn. Conditions: rate of application 0.3 Kg/Ha, rated after 12-17 days. Here is the method:
as §1, §2, §3, §4, §5

The test system of assay [4] is green foxtail (Setaria viridis). Put plainly: Postemergence herbicidal activity, green foxtail. The settings on record: rate of application 0.3 Kg/Ha, rated after 12-17 days. Here is the method: as §1, §2, §3, §4, §5
In assay [5] the test system is common cocklebur (Xanthium strumarium L.). Put plainly: Preemergence herbicidal activity, cocklebur. Conditions: Rate of Application 0.3 Kg/Ha, examined after 12-17 days. Here is the method:
as §1, §2, §3, §4, §5

Assay [6] deals with soybean (Glycine max var. Winchester). Put plainly: Postemergence herbicidal activity, soybean. Conditions: rate of application 0.3 Kg/Ha, rated after 12-17 days. The protocol: as §1, §2, §3, §4, §5
Assay [7] concerns Johnsongrass (Sorghum halepense). Put plainly: Preemergence herbicidal activity, johnsongrass. Conditions: Rate of Application 0.3 Kg/Ha, examined after 12-17 days. The protocol: as §1, §2, §3, §4, §5
Assay [8] concerns morningglory (Ipomea lacunosa or Ipomea hederacea). Put plainly: Postemergence herbicidal activity, morningglory. Conditions: rate of application 0.3 Kg/Ha, rated after 12-17 days. The protocol: as §1, §2, §3, §4, §5
Assay [9] concerns blackgrass (Aloepecurus myosuroides). Put plainly: Preemergence herbicidal activity, blackgrass. The settings on record: Alopecurus myosuroides, pre-emergence, Rate of Application 0.3 Kg/Ha, examined after 12-17 days, read-out: PREEMERGENCE HERBICIDAL ACTIVITY (% CONTROL) ALOMY. The protocol: as §1, §2, §3, §4, §5
Assay [10] relates to morningglory (Ipomea lacunosa or Ipomea hederacea). Put plainly: Preemergence herbicidal activity, morningglory. Conditions: Rate of Application 0.3 Kg/Ha, examined after 12-17 days. Here is the method: as §1, §2, §3, §4, §5
In assay [11] the test system is wheat (Triticum aestivum var. Lew). Put plainly: Preemergence herbicidal activity, wheat. Conditions: Rate of Application 0.3 Kg/Ha, examined after 12-17 days. The protocol: as §1, §2, §3, §4, §5
Assay [12] has as its system green foxtail (Setaria viridis). Put plainly: Preemergence herbicidal activity, green foxtail. Conditions: Rate of Application 0.3 Kg/Ha, examined after 12-17 days. Here is the method:
as §1, §2, §3, §4, §5

The subject of assay [13] is field corn (Zea mays var. Pioneer 3732). Put plainly: Preemergence herbicidal activity, corn. Conditions: Rate of Application 0.3 Kg/Ha, examined after 12-17 days. The protocol: as §1, §2, §3, §4, §5
Assay [14] concerns velvetleaf (Abutilon theophrasti). Put plainly: Preemergence herbicidal activity, velvetleaf. Conditions: Rate of Application 0.3 Kg/Ha, examined after 12-17 days. The protocol:
as §1, §2, §3, §4, §5

Assay [15] concerns soybean (Glycine max var. Winchester). Put plainly: Preemergence herbicidal activity, soybean. The settings on record: Rate of Application 0.3 Kg/Ha, examined after 12-17 days. The protocol: as §1, §2, §3, §4, §5
Assay [16] has as its system velvetleaf (Abutilon theophrasti). Put plainly: Postemergence herbicidal activity, velvetleaf. Conditions: rate of application 0.3 Kg/Ha, rated after 12-17 days. Here is the method:
as §1, §2, §3, §4, §5

Assay [17] concerns common chickweed (Stellaria media). Put plainly: Preemergence herbicidal activity, chickweed. Conditions: Rate of Application 0.3 Kg/Ha, examined after 12-17 days. The protocol: as §1, §2, §3, §4, §5
Assay [18] deals with common cocklebur (Xanthium strumarium L.). Put plainly: Postemergence herbicidal activity, cocklebur. Conditions: rate of application 0.3 Kg/Ha, rated after 12-17 days. Here is the method:
as §1, §2, §3, §4, §5

For `CC(=O)OC(C)(C)c1nc2c(-n3c(=O)cc(C(F)(F)F)n(C)c3=O)c(F)cc(Br)c2o1` [Compound 104, 1-METHYL-6-TRIFLUOROMETHYL-3-[7-BROMO-5-FLUORO-2-(2-METHYLCARBONYLOXYPROP-2-YL)BENZOXAZOL-4-YL]-2,4(1 H,3H)-PYRIMIDINEDIONE], the inhibition at 300 g/ha amounted to 100% in assay [1] (Sorghum halepense, post-emergence, read-out: Postemergence herbicidal activity (% control) SORHA); 100% in [2] (Triticum aestivum, post-emergence, read-out: Postemergence herbicidal activity (% control) WHT); 100% in [3] (Zea mays, post-emergence, read-out: Postemergence herbicidal activity (% control) CRN); 100% in assay [4] (Setaria viridis, post-emergence, read-out: Postemergence herbicidal activity (% control) SETVI); 100% in assay [5] (Xanthium strumarium, pre-emergence, read-out: PREEMERGENCE HERBICIDAL ACTIVITY (% CONTROL) XANPE); 100% in assay [6] (Glycine max, post-emergence, read-out: Postemergence herbicidal activity (% control) SOY). In addition, the inhibition at 300 g/ha came to 100% in assay [7] (Sorghum halepense, pre-emergence, read-out: PREEMERGENCE HERBICIDAL ACTIVITY (% CONTROL) SORHA); 100% in assay [8] (Ipomoea, post-emergence, read-out: Postemergence herbicidal activity (% control) IPOSS); 100% in [9]; 100% in [10] (Ipomoea, pre-emergence, read-out: PREEMERGENCE HERBICIDAL ACTIVITY (% CONTROL) IPOSS); 100% in assay [11] (Triticum aestivum, pre-emergence, read-out: PREEMERGENCE HERBICIDAL ACTIVITY (% CONTROL) WHT); 100% in assay [12] (Setaria viridis, pre-emergence, read-out: PREEMERGENCE HERBICIDAL ACTIVITY (% CONTROL) SETVI). Further, the inhibition at 300 g/ha turned out to be 100% in assay [13] (Zea mays, pre-emergence, read-out: PREEMERGENCE HERBICIDAL ACTIVITY (% CONTROL) CRN); 100% in assay [14] (Abutilon theophrasti, pre-emergence, read-out: PREEMERGENCE HERBICIDAL ACTIVITY (% CONTROL) ABUTH); 100% in assay [15] (Glycine max, pre-emergence, read-out: PREEMERGENCE HERBICIDAL ACTIVITY (% CONTROL) SOY); 100% in assay [16] (Abutilon theophrasti, post-emergence, read-out: Postemergence herbicidal activity (% control) ABUTH).
As to `CCCCc1cc2c(Cl)ccc(-n3c(=O)cc(C(F)(F)F)n(C)c3=O)c2o1` [Compound 225], the “Postemergence herbicidal activity (% control) SORHA” value in [1] is listed as 60%. The “Postemergence herbicidal activity (% control) WHT” value in [2] came to 30%. Moreover, the “Postemergence herbicidal activity (% control) CRN” value in [3] is listed as 60%. Also, the “Postemergence herbicidal activity (% control) SETVI” value in [4] is recorded as 90%. Moreover, the “PREEMERGENCE HERBICIDAL ACTIVITY (% CONTROL) XANPE” value in [5] is reported as 50%. Further, the “Postemergence herbicidal activity (% control) SOY” value in assay [6] came out at 60%. Further, the “PREEMERGENCE HERBICIDAL ACTIVITY (% CONTROL) STEME” value in assay [17] turned out to be 70%. Moreover, the “PREEMERGENCE HERBICIDAL ACTIVITY (% CONTROL) SORHA” value in [7] is recorded as 60%. The “Postemergence herbicidal activity (% control) XANPE” value in assay [18] amounted to 70%. Moreover, the “Postemergence herbicidal activity (% control) IPOSS” value in assay [8] stood at 75%. Also, the “PREEMERGENCE HERBICIDAL ACTIVITY (% CONTROL) IPOSS” value in assay [10] is given as 50%. The “PREEMERGENCE HERBICIDAL ACTIVITY (% CONTROL) WHT” value in [11] turned out to be 20%. For the same compound, in assay [12], the “PREEMERGENCE HERBICIDAL ACTIVITY (% CONTROL) SETVI” value was 100%. Besides, in assay [13], the “PREEMERGENCE HERBICIDAL ACTIVITY (% CONTROL) CRN” value is reported as 30%. Moreover, in assay [14], the “PREEMERGENCE HERBICIDAL ACTIVITY (% CONTROL) ABUTH” value came out at 90%. Besides, in assay [15], the “PREEMERGENCE HERBICIDAL ACTIVITY (% CONTROL) SOY” value stood at 40%. In addition, the “Postemergence herbicidal activity (% control) ABUTH” value in [16] came out at 100%.
